Source: publication PMC5509001, “Structure Modeling of Human Tyrosyl-DNA Phosphodiesterase 1 and Screening for Its Inhibitors” (Acta Naturae, 2017)

Molecular target: T1, recombinant human Tdp1 (tyrosyl-DNA phosphodiesterase 1) (Homo sapiens, UniProt Q9NUW8)
T1 construct: recombinant from plasmid pET 16B Tdp1 in Escherichia coli
Experiment: real-time fluorescence biosensor (FAM-oligonucleotide-BHQ1) cleavage
Type: biochemical
Excerpt: real-time fluorescence biosensor (FAM-oligonucleotide-BHQ1) cleavage on recombinant human Tdp1 (tyrosyl-DNA phosphodiesterase 1)

T1 sequence (Q9NUW8 whole entry): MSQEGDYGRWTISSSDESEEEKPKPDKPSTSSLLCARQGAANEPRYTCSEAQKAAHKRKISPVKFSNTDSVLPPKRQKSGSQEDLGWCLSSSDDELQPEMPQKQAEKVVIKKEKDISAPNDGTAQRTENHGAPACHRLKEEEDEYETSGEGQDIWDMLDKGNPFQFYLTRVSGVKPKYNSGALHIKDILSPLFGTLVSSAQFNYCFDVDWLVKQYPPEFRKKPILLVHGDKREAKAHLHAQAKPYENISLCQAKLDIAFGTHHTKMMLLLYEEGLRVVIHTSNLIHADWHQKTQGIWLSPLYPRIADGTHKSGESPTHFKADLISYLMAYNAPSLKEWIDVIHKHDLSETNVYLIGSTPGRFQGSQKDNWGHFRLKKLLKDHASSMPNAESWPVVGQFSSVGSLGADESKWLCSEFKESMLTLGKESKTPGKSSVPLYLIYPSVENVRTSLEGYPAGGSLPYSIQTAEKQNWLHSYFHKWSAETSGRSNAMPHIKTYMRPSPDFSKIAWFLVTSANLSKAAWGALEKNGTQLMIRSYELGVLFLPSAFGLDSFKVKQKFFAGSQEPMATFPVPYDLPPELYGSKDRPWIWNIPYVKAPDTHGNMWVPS

| IC50 [µM] | Compound |
| --- | --- |
| 83 ± 24 | O=S(=O)(O)CCSc1nc2ccccc2s1 [STK370528] |
| 686 ± 14 | O=S(=O)(O)CCCSc1nc2ccccc2[nH]1 [STK376552] |
